Laboratory results reported in patent US20260191838A1, “COMBINATIONS COMPRISING A MENIN-MLL INHIBITOR AND A BCL-2 INHIBITOR” (JANSSEN PHARMACEUTICA NV, priority 2022, published 2026).

Test system: MOLM-13 (KMT2A-r) cell line
Assay: In vitro proliferation (spheroid confluence, Incucyte), Compound 51 with venetoclax and optionally azacitidine, MOLM-13
Format: cell-based, human
Procedure: 3b) In Vitro Proliferation—Menin-MLL Inhibitor in Combination with Venetoclax and Optionally, Azacitidine
The effect of Compound 51, alone or in combination with venetoclax, or in combination with venetoclax+azacitidine, was determined in proliferation assays using the MOLM-13 (KMT2A-r) cell line.
MOLM-13 cells were seeded in 96-well, round-bottom, ultra-low attachment plates. The following dilution series were used: Compound 51 at an initial concentration of 1 μM, followed by a 5- or 6-point, 4-fold serial dilution series; azacitidine at an initial concentration of 25 μM, followed by a 6-point, 5-fold serial dilution series; and venetoclax at an initial concentration of 3 μM, followed by a 5- or 6-point, 5-fold serial dilution series. In the combination treatments that included venetoclax, venetoclax was added to the cells 4 days after treatment with Compound 51 and/or azacitidine was initiated. The triplet combination of Compound 51, in a checkerboard titration design with azacitidine+venetoclax, was tested at the same concentrations.
The optimal cell seeding number (500 cells/well) was chosen based on growth curves to ensure linear growth throughout the entire experiment. The DMSO content was normalized to 0.3% and cells were incubated for 8 days at 37° C., 5% CO2. Spheroid-like growth was monitored in real-time by non-invasive live-cell imaging using the 4× objective of the Incucyte ZOOM live cell imaging system (Essen BioScience), and images were acquired on Day 8. The percent confluence, as a measure of spheroid size, was determined using an integrated analysis tool that is part of the Incucyte ZOOM software “IncuCyte ZOOM 2016B” (Essen BioScience). The percent confluence from the DMSO well was used as baseline response. Each experiment contained 4 replicates of each condition and the experiment was performed 3 times. Potential combination effects were analyzed for synergy using an R-based Biochemically Intuitive Generalized Loewe (BIGL) model implemented with a highest single agent (HSA) null model (Van der Borght 2017).

## CC(=O)N1CCC(CN2CC[C@@H](Cc3cn(-c4ccc(F)cc4C(=O)N(C)C(C)C)c4cncc(C)c34)C2)CC1 [Compound 51]
doublet: Compound 51 0.0002 μM, Venetoclax 0.0003 μM
  Effect size (BIGL, HSA null model): 0.02
doublet: Compound 51 0.0002 μM, Venetoclax 0.0016 μM
  Effect size (BIGL, HSA null model): 0.01
doublet: Compound 51 0.0002 μM, Venetoclax 0.008 μM
  Effect size (BIGL, HSA null model): 0.05
doublet: Compound 51 0.0002 μM, Venetoclax 0.04 μM
  Effect size (BIGL, HSA null model): 0.02
doublet: Compound 51 0.0002 μM, Venetoclax 0.2 μM
  Effect size (BIGL, HSA null model): 0.08
doublet: Compound 51 0.0002 μM, Venetoclax 1 μM
  Effect size (BIGL, HSA null model): −0.05
doublet: Compound 51 0.001 μM, Venetoclax 0.0003 μM
  Effect size (BIGL, HSA null model): 0.01
doublet: Compound 51 0.001 μM, Venetoclax 0.0016 μM
  Effect size (BIGL, HSA null model): 0.03
doublet: Compound 51 0.001 μM, Venetoclax 0.008 μM
  Effect size (BIGL, HSA null model): 0.02
doublet: Compound 51 0.001 μM, Venetoclax 0.04 μM
  Effect size (BIGL, HSA null model): 0.00
doublet: Compound 51 0.001 μM, Venetoclax 0.2 μM
  Effect size (BIGL, HSA null model): 0.05
doublet: Compound 51 0.001 μM, Venetoclax 1 μM
  Effect size (BIGL, HSA null model): −0.05
doublet: Compound 51 0.004 μM, Venetoclax 0.0003 μM
  Effect size (BIGL, HSA null model): 0.05
doublet: Compound 51 0.004 μM, Venetoclax 0.0016 μM
  Effect size (BIGL, HSA null model): 0.04
doublet: Compound 51 0.004 μM, Venetoclax 0.008 μM
  Effect size (BIGL, HSA null model): 0.04
doublet: Compound 51 0.004 μM, Venetoclax 0.04 μM
  Effect size (BIGL, HSA null model): −0.03
doublet: Compound 51 0.004 μM, Venetoclax 0.2 μM
  Effect size (BIGL, HSA null model): 0.40
doublet: Compound 51 0.004 μM, Venetoclax 1 μM
  Effect size (BIGL, HSA null model): −0.09
doublet: Compound 51 0.0156 μM, Venetoclax 0.0003 μM
  Effect size (BIGL, HSA null model): −0.04
doublet: Compound 51 0.0156 μM, Venetoclax 0.008 μM
  Effect size (BIGL, HSA null model): −0.27
doublet: Compound 51 0.0156 μM, Venetoclax 0.04 μM
  Effect size (BIGL, HSA null model): −0.42
doublet: Compound 51 0.0156 μM, Venetoclax 0.2 μM
  Effect size (BIGL, HSA null model): −0.24
doublet: Compound 51 0.0156 μM, Venetoclax 1 μM
  Effect size (BIGL, HSA null model): −0.18
doublet: Compound 51 0.0625 μM, Venetoclax 0.0003 μM
  Effect size (BIGL, HSA null model): −0.01
doublet: Compound 51 0.0625 μM, Venetoclax 0.0016 μM
  Effect size (BIGL, HSA null model): −0.04
doublet: Compound 51 0.0625 μM, Venetoclax 0.008 μM
  Effect size (BIGL, HSA null model): −0.12
doublet: Compound 51 0.0625 μM, Venetoclax 0.04 μM
  Effect size (BIGL, HSA null model): −0.15
doublet: Compound 51 0.0625 μM, Venetoclax 0.2 μM
  Effect size (BIGL, HSA null model): −0.15
doublet: Compound 51 0.0625 μM, Venetoclax 1 μM
  Effect size (BIGL, HSA null model): −0.16
doublet: Compound 51 0.25 μM, Venetoclax 0.0003 μM
  Effect size (BIGL, HSA null model): 0.00
doublet: Compound 51 0.25 μM, Venetoclax 0.0016 μM
  Effect size (BIGL, HSA null model): 0.11
doublet: Compound 51 0.25 μM, Venetoclax 0.008 μM
  Effect size (BIGL, HSA null model): −0.05
doublet: Compound 51 0.25 μM, Venetoclax 0.04 μM
  Effect size (BIGL, HSA null model): −0.07
doublet: Compound 51 0.25 μM, Venetoclax 0.2 μM
  Effect size (BIGL, HSA null model): −0.13
doublet: Compound 51 0.25 μM, Venetoclax 1 μM
  Effect size (BIGL, HSA null model): −0.07
doublet: Compound 51 1 μM, Venetoclax 0.0003 μM
  Effect size (BIGL, HSA null model): −0.02
doublet: Compound 51 1 μM, Venetoclax 0.0016 μM
  Effect size (BIGL, HSA null model): −0.03
doublet: Compound 51 1 μM, Venetoclax 0.008 μM
  Effect size (BIGL, HSA null model): −0.07
doublet: Compound 51 1 μM, Venetoclax 0.04 μM
  Effect size (BIGL, HSA null model): −0.08
doublet: Compound 51 1 μM, Venetoclax 0.2 μM
  Effect size (BIGL, HSA null model): −0.07
doublet: Compound 51 1 μM, Venetoclax 1 μM
  Effect size (BIGL, HSA null model): −0.06
triplet: Compound 51 0.001 μM, Venetoclax 0.0001 μM, Azacitidine 0.008 μM
  Effect size (BIGL, HSA null model): 0.03
triplet: Compound 51 0.001 μM, Venetoclax 0.0002 μM, Azacitidine 0.0016 μM
  Effect size (BIGL, HSA null model): 0.03
triplet: Compound 51 0.001 μM, Venetoclax 0.005 μM, Azacitidine 0.04 μM
  Effect size (BIGL, HSA null model): 0.05
triplet: Compound 51 0.001 μM, Venetoclax 0.024 μM, Azacitidine 0.2 μM
  Effect size (BIGL, HSA null model): −0.02
triplet: Compound 51 0.001 μM, Venetoclax 0.12 μM, Azacitidine 1 μM
  Effect size (BIGL, HSA null model): 0.01
triplet: Compound 51 0.001 μM, Venetoclax 0.6 μM, Azacitidine 5 μM
  Effect size (BIGL, HSA null model): −0.03
triplet: Compound 51 0.001 μM, Venetoclax 3 μM, Azacitidine 25 μM
  Effect size (BIGL, HSA null model): 0.01
triplet: Compound 51 0.004 μM, Venetoclax 0.0001 μM, Azacitidine 0.008 μM
  Effect size (BIGL, HSA null model): 0.03
triplet: Compound 51 0.004 μM, Venetoclax 0.0002 μM, Azacitidine 0.0016 μM
  Effect size (BIGL, HSA null model): 0.04
triplet: Compound 51 0.004 μM, Venetoclax 0.005 μM, Azacitidine 0.04 μM
  Effect size (BIGL, HSA null model): 0.04
triplet: Compound 51 0.004 μM, Venetoclax 0.024 μM, Azacitidine 0.2 μM
  Effect size (BIGL, HSA null model): −0.05
triplet: Compound 51 0.004 μM, Venetoclax 0.12 μM, Azacitidine 1 μM
  Effect size (BIGL, HSA null model): −0.08
triplet: Compound 51 0.004 μM, Venetoclax 0.6 μM, Azacitidine 5 μM
  Effect size (BIGL, HSA null model): −0.03
triplet: Compound 51 0.004 μM, Venetoclax 3 μM, Azacitidine 25 μM
  Effect size (BIGL, HSA null model): 0.01
triplet: Compound 51 0.0625 μM, Venetoclax 0.0002 μM, Azacitidine 0.0016 μM
  Effect size (BIGL, HSA null model): 0.02
triplet: Compound 51 0.25 μM, Venetoclax 0.0001 μM, Azacitidine 0.008 μM
  Effect size (BIGL, HSA null model): −0.00
triplet: Compound 51 0.25 μM, Venetoclax 0.0002 μM, Azacitidine 0.0016 μM
  Effect size (BIGL, HSA null model): 0.00
triplet: Compound 51 0.25 μM, Venetoclax 0.005 μM, Azacitidine 0.04 μM
  Effect size (BIGL, HSA null model): 0.11
triplet: Compound 51 0.25 μM, Venetoclax 0.024 μM, Azacitidine 0.2 μM
  Effect size (BIGL, HSA null model): −0.07
triplet: Compound 51 0.25 μM, Venetoclax 0.12 μM, Azacitidine 1 μM
  Effect size (BIGL, HSA null model): −0.14
triplet: Compound 51 0.25 μM, Venetoclax 0.6 μM, Azacitidine 5 μM
  Effect size (BIGL, HSA null model): −0.06
triplet: Compound 51 0.25 μM, Venetoclax 3 μM, Azacitidine 25 μM
  Effect size (BIGL, HSA null model): 0.01
triplet: Compound 51 1 μM, Venetoclax 0.0001 μM, Azacitidine 0.008 μM
  Effect size (BIGL, HSA null model): −0.02
triplet: Compound 51 1 μM, Venetoclax 0.0002 μM, Azacitidine 0.0016 μM
  Effect size (BIGL, HSA null model): −0.01
triplet: Compound 51 1 μM, Venetoclax 0.005 μM, Azacitidine 0.04 μM
  Effect size (BIGL, HSA null model): −0.04
triplet: Compound 51 1 μM, Venetoclax 0.024 μM, Azacitidine 0.2 μM
  Effect size (BIGL, HSA null model): −0.08
triplet: Compound 51 1 μM, Venetoclax 0.12 μM, Azacitidine 1 μM
  Effect size (BIGL, HSA null model): −0.14
triplet: Compound 51 1 μM, Venetoclax 0.6 μM, Azacitidine 5 μM
  Effect size (BIGL, HSA null model): −0.05
triplet: Compound 51 1 μM, Venetoclax 3 μM, Azacitidine 25 μM
  Effect size (BIGL, HSA null model): 0.02
